Reference: patent US20170057955A1, “Pyridopyrimidinone Compounds for Modulating the Catalytic Activity of Histone Lysine Demethylases (KDMs)” (Dong-A Socio Holdings Co., Ltd., priority 2015, published 2017)

What follows are molecules tested against T1, Recombinant human JARID1B/KDM5B (Homo sapiens, UniProt Q9UGL1) (assay: LANCE Ultra TR-FRET JARID1B (KDM5B) demethylase inhibition assay). Conditions: 0.1 uM of test-compounds, FLAG-JARID1B, 500 nM biotinylated H3K4me3 peptide substrate, 30 min at room temperature.
T1 construct: purchased Active Motif 31432; host or cells: Sf9 insect cells
Type: biochemical
Outline: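 FLAG-tagged JARID1B from Sf9 cells, pre-incubated 5 min with 0.1 uM compound (1% DMSO), then 500 nM biotinylated H3K4me3 peptide, 500 uM 2-OG, 25 uM Fe(II), 2 mM ascorbate in pH 7.5 Hepes buffer. After 30 min at room temperature, H3K4me2/1 product detected by TR-FRET (665/590 nm ratio).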

T1 sequence (Q9UGL1 whole entry): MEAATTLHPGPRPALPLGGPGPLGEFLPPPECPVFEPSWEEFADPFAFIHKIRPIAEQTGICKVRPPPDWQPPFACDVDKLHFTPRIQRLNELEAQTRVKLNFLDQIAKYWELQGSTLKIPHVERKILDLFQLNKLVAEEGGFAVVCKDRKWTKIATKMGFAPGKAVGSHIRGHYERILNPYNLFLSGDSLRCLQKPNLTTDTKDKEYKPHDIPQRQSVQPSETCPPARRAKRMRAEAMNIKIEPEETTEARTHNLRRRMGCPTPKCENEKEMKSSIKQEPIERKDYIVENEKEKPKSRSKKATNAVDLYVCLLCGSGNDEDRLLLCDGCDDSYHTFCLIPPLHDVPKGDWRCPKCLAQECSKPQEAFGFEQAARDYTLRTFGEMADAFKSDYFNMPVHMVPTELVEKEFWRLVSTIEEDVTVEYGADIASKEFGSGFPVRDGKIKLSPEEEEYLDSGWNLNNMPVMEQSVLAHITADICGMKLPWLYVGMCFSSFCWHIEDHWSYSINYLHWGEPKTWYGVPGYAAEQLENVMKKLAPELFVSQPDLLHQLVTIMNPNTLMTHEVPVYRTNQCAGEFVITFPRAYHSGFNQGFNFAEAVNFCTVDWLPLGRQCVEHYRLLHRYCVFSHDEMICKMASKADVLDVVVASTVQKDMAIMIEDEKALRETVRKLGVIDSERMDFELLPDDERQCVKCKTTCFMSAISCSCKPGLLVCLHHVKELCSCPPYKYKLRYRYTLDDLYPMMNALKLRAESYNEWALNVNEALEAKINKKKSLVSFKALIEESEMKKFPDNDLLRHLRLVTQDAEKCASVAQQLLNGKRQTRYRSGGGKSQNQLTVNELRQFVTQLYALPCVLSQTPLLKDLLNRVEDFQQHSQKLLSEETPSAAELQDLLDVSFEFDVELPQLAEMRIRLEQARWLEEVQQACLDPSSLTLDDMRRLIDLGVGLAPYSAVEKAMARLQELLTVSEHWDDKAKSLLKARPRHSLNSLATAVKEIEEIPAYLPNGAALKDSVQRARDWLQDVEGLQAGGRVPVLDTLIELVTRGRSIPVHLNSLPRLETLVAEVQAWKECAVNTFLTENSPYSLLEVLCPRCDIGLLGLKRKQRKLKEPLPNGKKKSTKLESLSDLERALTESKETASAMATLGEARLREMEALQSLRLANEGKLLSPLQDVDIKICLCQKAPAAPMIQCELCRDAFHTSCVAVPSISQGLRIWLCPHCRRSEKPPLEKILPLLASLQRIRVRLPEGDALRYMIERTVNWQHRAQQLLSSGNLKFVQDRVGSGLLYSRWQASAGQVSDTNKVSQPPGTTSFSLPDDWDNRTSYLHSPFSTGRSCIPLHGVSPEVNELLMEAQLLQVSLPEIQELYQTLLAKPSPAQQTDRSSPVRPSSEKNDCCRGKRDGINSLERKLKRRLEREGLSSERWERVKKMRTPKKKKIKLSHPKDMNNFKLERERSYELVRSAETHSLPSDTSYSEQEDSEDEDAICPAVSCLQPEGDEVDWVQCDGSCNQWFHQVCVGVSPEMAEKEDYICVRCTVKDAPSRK

inhibition at 0.1 µM	SMILES
≥ 50%	O=c1[nH]c(COc2ccc(F)c(Cl)c2)nc2c(-c3csc(NCCCO)n3)nccc12 [Compound 90, 2-((3-chloro-4-fluorophenoxy)methyl)-8-(2-((3-hydroxypropyl)amino)thiazol-4-yl)pyrido[3,4-d]pyrimidin-4(3H)-one]
≥ 50%	CN(C)CCCNc1nc(-c2nccc3c(=O)[nH]c(COc4ccc(F)c(Cl)c4)nc23)cs1 [Compound 91, 2-((3-chloro-4-fluorophenoxy)methyl)-8-(2-((3-(dimethylamino)propyl)amino)thiazol-4-yl)pyrido[3,4-d]pyrimidin-4(3H)-one]
≥ 50%	CN1CCCC1CCNc1nc(-c2nccc3c(=O)[nH]c(COc4ccc(F)c(Cl)c4)nc23)cs1 (stereo not drawn) [Compound 92, 2-((3-chloro-4-fluorophenoxy)methyl)-8-(2-((2-(1-methylpyrrolidin-2-yl)ethyl)amino)thiazol-4-yl)pyrido[3,4-d]pyrimidin-4(3H)-one]
≥ 50%	O=c1[nH]c(COc2ccc(F)c(Cl)c2)nc2c(-c3csc(NC4CCNCC4)n3)nccc12 [Compound 93, 2-((3-chloro-4-fluorophenoxy)methyl)-8-(2-(piperidin-4-ylamino)thiazol-4-yl)pyrido[3,4-d]pyrimidin-4(3H)-one]
≥ 50%	CN1CCC(Nc2nc(-c3nccc4c(=O)[nH]c(COc5ccc(F)c(Cl)c5)nc34)cs2)CC1 [Compound 94, 2-((3-chloro-4-fluorophenoxy)methyl)-8-(2-((1-methylpiperidin-4-yl)amino)thiazol-4-yl)pyrido[3,4-d]pyrimidin-4(3H)-one]
20 to 50%	CCC(O)CNc1nc(-c2nccc3c(=O)[nH]c(COc4ccc(F)c(Cl)c4)nc23)cs1 (stereo not drawn) [Compound 95, 2-((3-chloro-4-fluorophenoxy)methyl)-8-(2-((2-hydroxybutyl)amino)thiazol-4-yl)pyrido[3,4-d]pyrimidin-4(3H)-one]
< 20%	O=c1[nH]c(COc2ccc(F)c(Cl)c2)nc2c(-c3csc(NCC4CCN(Cc5ccccc5)CC4)n3)nccc12 [Compound 96, 8-(2-(((1-benzylpiperidin-4-yl)methyl)amino)thiazol-4-yl)-2-((3-chloro-4-fluorophenoxy)methyl) pyrido[3,4-d]pyrimidin-4(3H)-one]
20 to 50%	CC(C)N1CCC(CNc2nc(-c3nccc4c(=O)[nH]c(COc5ccc(F)c(Cl)c5)nc34)cs2)CC1 [Compound 97, 2-((3-chloro-4-fluorophenoxy)methyl)-8-(2-(((1-isopropylpiperidin-4-yl)methyl)amino)thiazol-4-yl)pyrido[3,4-d]pyrimidin-4(3H)-one]
20 to 50%	O=c1[nH]c(COc2ccc(F)c(Cl)c2)nc2c(-c3csc(NCC4CCN(C5CCCC5)CC4)n3)nccc12 [Compound 98, 2-((3-chloro-4-fluorophenoxy)methyl)-8-(2-(((1-cyclopentylpiperidin-4-yl)methyl)amino)thiazol-4-yl)pyrido[3,4-d]pyrimidin-4(3H)-one]
20 to 50%	O=c1[nH]c(COc2ccc(F)c(Cl)c2)nc2c(-c3csc(NCC4CCNCC4)n3)nccc12 [Compound 99, 2-((3-chloro-4-fluorophenoxy)methyl)-8-(2-((piperidin-4-ylmethyl)amino)thiazol-4-yl)pyrido[3,4-d]pyrimidin-4(3H)-one]
20 to 50%	O=c1[nH]c(COc2ccc(F)c(Cl)c2)nc2c(-c3csc(NCC4CCN(CCO)CC4)n3)nccc12 [Compound 100, 2-((3-chloro-4-fluorophenoxy)methyl)-8-(2-(((1-(2-hydroxyethyl)piperidin-4-yl)methyl)amino)thiazol-4-yl)pyrido[3,4-d]pyrimidin-4(3H)-one]
20 to 50%	COCCN1CCC(CNc2nc(-c3nccc4c(=O)[nH]c(COc5ccc(F)c(Cl)c5)nc34)cs2)CC1 [Compound 101, 2-((3-chloro-4-fluorophenoxy)methyl)-8-(2-(((1-(2-methoxyethyl)piperidin-4-yl)methyl)amino)thiazol-4-yl)pyrido[3,4-d]pyrimidin-4(3H)-one]
